Assays:
[1] = test system: Euschistus heros (Neotropical Brown Stink Bug); assay: Example B2: Euschistus heros (neotropical brown stink bug), soybean leaves sprayed, N2 nymphs; assay type: in vivo; conditions: 120 h, application rate of 200 ppm, 5 days after infestation, N2 nymphs, read-out: control in at least one of the two categories (mortality or growth inhibition)
Procedure: Soybean leaves on agar in 24-well microtiter plates were sprayed with aqueous test solutions prepared from 10′000 ppm DMSO stock solutions. After drying the leaves were infested with N2 nymphs. The samples were assessed for mortality and growth inhibition in comparison to untreated samples 5 days after infestation.

[2] = test system: Spodoptera littoralis (Egyptian Cotton Leaf Worm); assay: Example B7: Spodoptera littoralis (Egyptian cotton leaf worm), cotton leaf discs sprayed, L1 larvae; assay type: in vivo; conditions: foliar, 72 h, application rate of 200 ppm, 3 days after infestation, L1 larvae, read-out: control in at least one of the three categories (mortality, anti-feedant effect, or growth inhibition)
How it was run: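 Leaf discs on agar sprayed with aqueous dilutions of 10′000 ppm DMSO stocks, dried, then infested with five L1 larvae. Mortality, anti-feeding and growth inhibition scored versus untreated 3 days after infestation; control given when any category exceeds untreated.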

[3] = test system: Myzus persicae (Green Peach Aphid); assay: Example B5: Myzus persicae (green peach aphid) feeding/contact activity, sunflower leaf discs; assay type: in vivo; conditions: foliar, 144 h, application rate of 200 ppm, 6 days after infestation
Procedure: Sunflower leaf discs were placed onto agar in a 24-well microtiter plate and sprayed with aqueous test solutions prepared from 10′000 ppm DMSO stock solutions. After drying, the leaf discs were infested with an aphid population of mixed ages. The samples were assessed for mortality 6 days after infestation.

[4] = test system: Chilo suppressalis (Striped Rice Stemborer); assay: Example B3: Chilo suppressalis (striped rice stemborer), artificial diet, L2 larvae; assay type: in vivo; conditions: 144 h, application rate of 200 ppm, 6 days after infestation, L2 larvae, read-out: control in at least one of the three categories (mortality, anti-feedant effect, or growth inhibition)
How it was run: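 First, artificial diet was treated with aqueous solutions prepared from 10'000 ppm DMSO stocks; second, after drying, L2 larvae (6-8/well) were added; third, effects were assessed at 6 days against untreated controls, counting control when any of three categories was higher.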

[5] = test system: Diabrotica Balteata (Corn Root Worm); assay: Example B1: Diabrotica balteata (corn root worm), maize sprouts sprayed, L2 larvae; assay type: in vivo; conditions: 96 h, application rate of 200 ppm, 4 days after infestation, L2 larvae, read-out: control in at least one of the two categories (mortality or growth inhibition)
How it was run: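 Read-out is mortality plus growth inhibition relative to untreated controls, assessed 4 days after infestation. Sprouts resting on agar are sprayed with aqueous solutions derived from 10′000 ppm DMSO stocks and left to dry before L2 larvae (6 to 10 per well) are added.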

[6] = test system: Plutella xylostella (Diamond Back Moth); assay: Example B4: Plutella xylostella (diamond back moth), artificial diet, eggs, 24-well; assay type: in vivo; conditions: 192 h, application rate of 200 ppm, 8 days after infestation, eggs, read-out: control in at least one of the two categories (mortality or growth inhibition)
Procedure: 24-well microtiter plates with artificial diet were treated with aqueous test solutions prepared from 10′000 ppm DMSO stock solutions by pipetting. After drying, Plutella eggs were pipetted through a plastic stencil onto a gel blotting paper and the plate was closed with it. The samples were assessed for mortality and growth inhibition in comparison to untreated samples 8 days after infestation.

[7] = test system: Myzus persicae (Green Peach Aphid); assay: Example B6: Myzus persicae (green peach aphid) intrinsic activity, sucrose solution; assay type: in vivo; conditions: 120 h, test rate of 12 ppm, 5 days after infestation, intrinsic activity, read-out: mortality
How it was run: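 Compounds from 10′000 ppm DMSO stocks were mixed into sucrose solution in 24-well plates sealed with Parafilm. Aphid-infested pea seedlings were set on the membrane and the plate inverted so aphids fed through it. Mortality scored 5 days after infestation.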

Row | melting point [°C] | Structure (SMILES) | percent control (mortality or growth inhibition) at 200 ppm [1] [%] | percent control (mortality, anti-feedant effect or growth inhibition) at 200 ppm [2] [%] | mortality at 200 ppm [3] [%] | percent control (mortality, anti-feedant effect or growth inhibition) at 200 ppm [4] [%] | percent control (mortality or growth inhibition) at 200 ppm [5] [%] | percent control (mortality or growth inhibition) at 200 ppm [6] [%] | mortality at 12 ppm [7] [%]
1 | 84 to 86 | C[C@@H](c1ncnn1-c1ncccn1)N(C)c1c(C#N)cnc2c(C(F)(F)F)cc(C(F)(F)F)cc12 |  |  |  |  |  |  | 
2 | 144 to 146 | C[C@@H](c1ncnn1-c1ccc(-c2ncon2)cn1)N(C)c1ncnc2c(C(F)(F)F)cc(Cl)cc12 |  |  |  |  |  |  | 
3 | 280 to 282 | CC(Nc1ncnc2c(Br)cc(C(F)(F)F)cc12)c1ncnn1-c1ccc(Br)cn1 (centres unmarked) |  |  |  |  |  |  | 
4 | 81 to 83 | CC(c1ncnn1-c1ncccn1)N(CC1CC1)c1nc(Cl)nc2c(Cl)cc(C(F)(F)F)cc12 (centres unmarked) |  |  |  |  |  |  | 
5 | 251 to 253 | CC(c1nccnc1-c1ccc(C#N)cn1)N(CC1CC1)c1ncnc2c(C(F)(F)F)cc(Br)cc12 (centres unmarked) |  |  |  |  |  |  | 
6 |  | C[C@@H](c1ncnn1-c1ncccn1)N(C)c1ncnc2c(C(F)(F)C3CC3)cc(C(F)(F)F)cc12 [P.201, 8-[cyclopropyl(difluoro)meth-yl]-N-methyl-N-[(1S)-1-(2-pyrimidin-2-yl-1,2,4-triazol-3-yl)ethyl]-6-(trifluoromethyl)quinazolin-4-amine] | ≥ 80 | ≥ 80 | ≥ 80 | ≥ 80 | ≥ 80 | ≥ 80 | ≥ 80
7 |  | C[C@H](c1ncnn1-c1ccc(C#N)cn1)N(C)c1ncnc2c(C(F)(F)F)cc(Br)cc12 [P.203, 6-[5-[(1R)-1-[[6-bromo-8-(trifluoromethyl)quinazolin-4-yl]-methyl-amino]ethyl]-1,2,4-triazol-1-yl]pyridine-3-carbonitrile] | ≥ 80 | ≥ 80 | ≥ 80 | ≥ 80 | ≥ 80 | ≥ 80 | ≥ 80
8 |  | C[C@@H](c1ncnn1-c1ccc(C#N)cn1)N(C)c1ncnc2c(SC(F)(F)F)cc(C(F)(F)F)cc12 [P.215, 6-[5-[(1S)-1-[methyl-[6-(trifluoromethyl)-8-(trifluoromethylsulfanyl)quinazolin-4-yl]amino]ethyl]-1,2,4-triazol-1-yl]pyridine-3-carbonitrile] | ≥ 80 | ≥ 80 | ≥ 80 | ≥ 80 | ≥ 80 | ≥ 80 | ≥ 80
9 |  | C[C@@H](c1ncnn1-c1ncccn1)N(C)c1ncnc2c(I)cc(C(F)(F)F)cc12 [P.219, 8-iodo-N-methyl-N-[(1S)-1-(2-pyrimidin-2-yl-1,2,4-triazol-3-yl)ethyl]-6-(trifluoromethyl)quinazolin-4-amine] | ≥ 80 | ≥ 80 | ≥ 80 | ≥ 80 | ≥ 80 | ≥ 80 | ≥ 80
10 |  | CC(c1ncnn1-c1ccc(C#N)cn1)N(C)c1ncnc2c(C(F)(F)F)cc(OC(F)(F)F)cc12 (centres unmarked) [P.221, 6-[5-[1-[methyl-[6-(trifluoromethoxy)-8-(trifluoromethyl)quinazolin-4-yl]amino]ethyl]-1,2,4-triazol-1-yl]pyridine-3-carbonitrile] | ≥ 80 | ≥ 80 | ≥ 80 | ≥ 80 | ≥ 80 | ≥ 80 | ≥ 80
11 |  | C[C@@H](c1ncnn1-c1ccc(C#N)cn1)N(C)c1ncnc2c(C(=O)C3CC3)cc(C(F)(F)F)cc12 [P.227, 6-[5-[(1S)-1-[[8-(cyclopropanecarbonyl)-6-(trifluoromethyl)quinazolin-4-yl]-methyl-amino]ethyl]-1,2,4-triazol-1-yl]pyridine-3-carbonitrile] | ≥ 80 | ≥ 80 | ≥ 80 | ≥ 80 | ≥ 80 | ≥ 80 | ≥ 80
12 |  | C[C@@H](c1ncnn1-c1ccc(C#N)cn1)N(C)c1ncnc2c(I)cc(C(F)(F)F)cc12 [P.228, 6-[5-[(1S)-1-[[8-iodo-6-(trifluoromethyl)quinazolin-4-yl]-methyl-amino]ethyl]-1,2,4-triazol-1-yl]pyridine-3-carbonitrile] | ≥ 80 | ≥ 80 | ≥ 80 | ≥ 80 | ≥ 80 | ≥ 80 | ≥ 80
13 |  | CC(c1ncnn1-c1ncccn1)N(C)c1ncnc2c(OC(F)F)cc(Br)cc12 (centres unmarked) [P.245, 6-bromo-8-(difluoromethoxy)-N-methyl-N-[1-(2-pyrimidin-2-yl-1,2,4-triazol-3-yl)ethyl]quinazolin-4-amine] | ≥ 80 | ≥ 80 | ≥ 80 | ≥ 80 | ≥ 80 | ≥ 80 | ≥ 80
14 |  | CC(Nc1ncnc2c(OC(F)(F)F)cc(Br)cc12)c1ncnn1-c1ncccn1 (centres unmarked) [P.248, 6-bromo-N-[1-(2-pyrimidin-2-yl-1,2,4-triazol-3-yl)ethyl]-8-(trifluoromethoxy)quina-zolin-4-amine] | ≥ 80 | ≥ 80 | ≥ 80 | ≥ 80 | ≥ 80 | ≥ 80 | ≥ 80
15 |  | C[C@@H](c1ncnn1-c1ccc(C#N)cn1)N(CC1CC1)c1ncnc2c(C(F)(F)F)cc(Cl)cc12 [P.264, 6-[5-[(1S)-1-[[6-chloro-8-(trifluoromethyl)quinazolin-4-yl]-(cyclopropylmethyl)amino]ethyl]-1,2,4-triazol-1-yl]pyridine-3-carbonitrile] | ≥ 80 | ≥ 80 | ≥ 80 | ≥ 80 | ≥ 80 | ≥ 80 | ≥ 80
16 |  | C[C@@H](c1ncnn1-c1ncccn1)N(CC1CC1)c1ncnc2c(C(F)(F)F)cc(Cl)cc12 [P.265, 6-chloro-N-(cyclopropylmethyl)-N-[(1S)-1-(2-pyrimidin-2-yl-1,2,4-triazol-3-yl)ethyl]-8-(trifluoromethyl)quinazolin-4-amine] | ≥ 80 | ≥ 80 | ≥ 80 | ≥ 80 | ≥ 80 | ≥ 80 | ≥ 80
17 |  | C[C@@H](c1ncnn1-c1ccc(C#N)cn1)N(CC1CC1)c1ncnc2c(Cl)cc(C(F)(F)F)cc12 [P.271, 6-[5-[(1S)-1-[[8-chloro-6-(trifluoromethyl)quinazolin-4-yl]-(cyclopropylmethyl)amino]ethyl]-1,2,4-triazol-1-yl]pyridine-3-carbonitrile] | ≥ 80 | ≥ 80 | ≥ 80 | ≥ 80 | ≥ 80 | ≥ 80 | ≥ 80

Reference: patent US20230002359A1, “PESTICIDALLY ACTIVE FUSED BICYCLIC HETEROAROMATIC COMPOUNDS” (priority 2019, published 2023)
